The results in this text go back to ChEMBL document CHEMBL6078615, “Sesquilignans: Current research and potential prospective” (Eur J Med Chem, 2024).

One may read the IC50 as the concentration needed to halve the response being measured.

Holding throughout (assay type): functional, cell-based
Experiment [1] has as its system RAW264.7. The experiment is described as follows: Antiinflammatory activity in LPS-induced mouse RAW264.7 cells assessed as inhibition of TNFalpha secretion preincubated for 1 hr followed by LPS addition measured for 24 hrs by ELISA method. In general terms: In an ELISA, binding on a coated surface is turned into a signal by an enzyme label.
In experiment [2] the test system is RAW264.7. As to the kind of experiment: Antiinflammatory activity in LPS-induced mouse RAW264.7 cells assessed as inhibition of IL-1beta secretion preincubated for 1 hr followed by LPS addition for 24 hrs by ELISA method.
The subject of experiment [3] is RAW264.7. As to the kind of experiment: Antiinflammatory activity in LPS-induced mouse RAW264.7 cells assessed as inhibition of IL-6 secretion preincubated for 1 hr followed by LPS addition for 24 hrs by ELISA method.

Regarding `COc1cc([C@H](O)[C@@H](CO)Oc2c(OC)cc([C@H]3OC[C@H]4[C@@H]3CO[C@@H]4c3cc(OC)c(O)c(OC)c3)cc2OC)ccc1O`, the half-maximal inhibitory concentration (IC50) in experiment [1] was found to be 50.9 µM; in experiment [2] it was 10.9 µM; in experiment [3] it was 2.4 µM.
